# Results published in patent US8912120B2, “Herbicidal compositions comprising 4-amino-3-chloro-5-fluoro-6-(4-chloro-2-fluoro-3-methoxyphenyl) pyridine-2-carboxylic acid or a derivative thereof and synthetic auxin herbicides” (Dow AgroSciences, LLC., priority 2012, dated 2014).
# Counter-ions that a name gives are not always drawn. Like-named read-outs stand apart in the source and are kept apart here.
# What was measured:
# CIRAR = test: Example V: postemergence herbicidal activity of mixtures in forage crops, CIRAR; type: in vivo, Cirsium arvense (Canada thistle); conditions: alone, 35 gae/ha, foliar, approximately 21 days
# Procedure: (§1) Seeds or root cuttings of the desired test plant species were planted in Sun Gro MetroMix® 306 planting mixture, which typically has a pH of 6.0 to 6.8 and an organic matter content of about 30 percent, in plastic pots with a surface area of 126.6 square centimeters (cm^2). […] The plants were grown for 14-60 days in a greenhouse with an approximate 14 hour photoperiod which was maintained at approximately 28° C. during the day and 24° C. during the night.
# (§2) Spray solutions of the second herbicide or experimental compound mixtures were prepared by adding the stock solutions to the appropriate amount of dilution solution to form 12 mL spray solution with active ingredients in two-way combinations.
# SOOSS = test: Example V: postemergence herbicidal activity of mixtures in forage crops, SOOSS; type: in vivo, Solidago L. spec. (goldenrod); conditions: alone, 35 gae/ha, foliar, approximately 21 days
# Procedure: as §1, §2
# SCPMA = test: Example II: in-water applied herbicidal mixtures, transplanted paddy rice, SCPMA; type: in vivo
# Procedure: (§3) The prepared mud was dispensed in 365 mL aliquots into 16-ounce (oz.) non-perforated plastic pots with a surface area of 86.59 square centimeters (cm^2) leaving a headspace of 3 centimeters (cm) in each pot Mud was allowed to dry overnight prior to planting or transplanting. Rice seeds were planted in Sun Gro MetroMix® 306 planting mixture, which typically has a pH of 6.0 to 6.8 and an organic matter content of about 30 percent, in plastic plug trays. Seedlings at the second or third leaf stage of growth were transplanted into 840 mL of mud contained in 32-oz. non-perforated plastic pots with a surface area of 86.59 cm^2 4 days prior to herbicide application. […] Nutrients were added as Osmocote® (19:6:12, N:P:K^+ minor nutrients) at 2 g per 16-oz. pot and 4 g per 32-oz. pot.
# (§4) Applications were made by injecting with a pipetter appropriate amounts of the application solutions, individually and sequentially, into the aqueous layer of the paddy. Control plants were treated in the same manner with the solvent blank. Applications were made so that all treated plant material received the same concentrations of acetone and crop oil concentrate.
# ISCRU = test: Example I: postemergence foliar-applied herbicidal mixtures, direct seeded rice, ISCRU; type: in vivo, Ischaemum rugosum (saramollagrass)
# Procedure: (§6) The soil matrix was contained in plastic pots with a volume of 1 quart and a surface area of 83.6 square centimeters (cm^2). […] The plants were grown for 8-22 days in a greenhouse with an approximate 14 h photoperiod which was maintained at about 29° C. during the day and 26° C. during the night. Nutrients (Peters Excel® 15-5-15 5-Ca 2-Mg and iron chelate) were applied in the irrigation solution as needed and water was added on a regular basis. Supplemental lighting was provided with overhead metal halide 1000-Watt lamps as necessary. The plants were employed for testing when they reached the first through fourth true leaf stage.
# (§7) Treatments consisted of the acid or esters of 4-amino-3-chloro-5-fluoro-6-(4-chloro-2-fluoro-3-methoxy-phenyl)pyridine-2-carboxylic acid (Compound A), each formulated as an SC (suspension concentrate), and various herbicidal components alone and in combination. Forms of compound A were applied on an acid equivalent basis.
# (§8) For treatments comprised of formulated compounds, measured amounts of compounds were placed individually in 25 mL glass vials and diluted in a volume of 1.25% (v/v) Agri-Dex® crop oil concentrated to obtain 12× stock solutions. […] Application solutions were prepared by adding an appropriate amount of each stock solution (e.g., 1 mL) and diluted to the appropriate final concentrations with the addition of 10 mL of an aqueous mixture of 1.25% (v/v) crop oil concentrate so that the final spray solutions contained 1.25+/−0.05% (v/v) crop oil concentrate.
# (§9) All stock solutions and applications solutions were visually inspected for compound compatibility prior to application. Spray solutions were applied to the plant material with an overhead Mandel track sprayer equipped with a 8002E nozzles calibrated to deliver 187 L/ha over an application area of 0.503 m^2 at a spray height of 18 to 20 inches (46 to 50 cm) above average plant canopy height. Control plants were sprayed in the same manner with the solvent blank.
# (§10) The treated plants and control plants were placed in a greenhouse as described above and watered by sub-irrigation to prevent wash-off of the test compounds. After approximately 3 weeks, the condition of the test plants as compared with that of the untreated plants was determined visually and scored on a scale of 0 to 100 percent where 0 corresponds to no injury or growth inhibition and 100 corresponds to complete kill.
# (§11) Colby's equation was used to determine the herbicidal effects expected from the mixtures (Colby, S. R. 1967. Calculation of the synergistic and antagonistic response of herbicide combinations. Weeds 15:20-22).
# (§12) The following equation was used to calculate the expected activity of mixtures containing two active ingredients, A and B: Expected=A+B−(A×B/100)
# (§13) A=observed efficacy of active ingredient A at the same concentration as used in the mixture.
# (§14) B=observed efficacy of active ingredient B at the same concentration as used in the mixture.
# ECHCG [1] = test: Example I: postemergence foliar-applied herbicidal mixtures, direct seeded rice, ECHCG
# Procedure: as §6, §7, §8, §9, §10, §11, §12, §13, §14
# AMARE = test: Example IV: postemergence foliar-applied herbicidal mixtures, weed control in cereal crops in the greenhouse, AMARE; type: in vivo, Amaranthus retroflexus (redroot pigweed); conditions: alone, 140 gai/ha, 20-22 days
# Procedure: as §1, with “Seeds” for “Seeds or root cuttings”, “MetroMix” for “MetroMix®”, “103.2” for “126.6”, “7-36” for “14-60”, “about 18°” for “approximately 28°”, “17°” for “24°”
# (§5) Spray solutions of the second cereal herbicide and experimental compound mixtures were prepared by adding the stock solutions to the appropriate amount of dilution solution to form 12 mL spray solution with active ingredients in two- and three-way combinations.
# ECHOR = test: Example II: in-water applied herbicidal mixtures, transplanted paddy rice, ECHOR; type: in vivo, Echinochloa oryzoides (early watergrass); conditions: Echinochloa oryzoides; for pest or weed control at 140 g/ha / pest or weed control at 280 g/ha: 504 h, read-out: Visual Weed Control (%) Obs, 21 DAA
# Procedure: as §3, §4
# VIOTR = test: Example IV: postemergence foliar-applied herbicidal mixtures, cereal crops, VIOTR; type: in vivo, Viola tricolor (wild pansy); conditions: alone, 140 gai/ha, foliar, 20-22 days
# Procedure: as §1, with “Seeds” for “Seeds or root cuttings”, “MetroMix” for “MetroMix®”, “103.2” for “126.6”, “7-36” for “14-60”, “about 18°” for “approximately 28°”, “17°” for “24°”
# as §5
# CYPES = test: Example I: postemergence foliar-applied herbicidal mixtures, direct seeded rice, CYPES; type: in vivo, Cyperus esculentus (yellow nutsedge)
# Procedure: as §6, §7, §8, §9, §10, §11
# The following equation was used to calculate the expected activity of mixtures containing two active ingredients, A and B: Expected=A+B−(A×B/100) […]
# DIGSA = test: Example I: postemergence foliar-applied herbicidal mixtures, direct seeded rice, DIGSA; conditions: 560 gai/ha
# Procedure: as §6, §7, §8, §9, §10, §11, §12, §13, §14
# CYPIR [2] = test: Example I: postemergence foliar-applied herbicidal mixtures, direct seeded rice, CYPIR; type: in vivo, Cyperus iria (rice flatsedge)
# Procedure: as §6, §7, §8, §9, §10, §11, §12, §13, §14
# POLCO = test: Example IV: postemergence foliar-applied herbicidal mixtures, cereal crops, POLCO; type: in vivo, Polygonum convolvulus (wild buckwheat); conditions: alone, 140 gai/ha, foliar, 20-22 days
# Procedure: as §1, with “Seeds” for “Seeds or root cuttings”, “MetroMix” for “MetroMix®”, “103.2” for “126.6”, “7-36” for “14-60”, “about 18°” for “approximately 28°”, “17°” for “24°”
# as §5
# CYPIR [3] = test: Example II: in-water applied herbicidal mixtures, transplanted paddy rice, CYPIR; type: in vivo, Cyperus iria L. (flatsedge; conditions: 21 DAA; 560 gai/ha
# ECHCO = test: Example I: postemergence foliar-applied herbicidal mixtures, direct seeded rice, ECHCO
# Procedure: as §6, §7, §8, §9, §10, §11, §12, §13, §14
# CASOB = test: Example V: postemergence herbicidal activity of mixtures in forage crops (greenhouse), CASOB; type: in vivo, Cassia obtusifolia (sicklepod); conditions: alone, 50 gae/ha, foliar, approximately 21 days
# Procedure: as §1, §2
# ECHCG [4] = test: Example II: in-water applied herbicidal mixtures, transplanted paddy rice, ECHCG; type: in vivo, Echinochloa crus-galli (barnyardgrass); conditions: 21 DAA
# Procedure: as §3, §4
# LEFCH = test: Example I: postemergence foliar-applied herbicidal mixtures, direct seeded rice, LEFCH; type: in vivo, Leptochloa chinensis (Chinese sprangletop)
# SINAR = test: Example V: postemergence herbicidal activity of mixtures in forage crops, SINAR; type: in vivo, Sinapis arvensis (wild mustard); conditions: alone, 50 gae/ha, foliar, approximately 21 days
# Procedure: as §1, §2
# SIDSP = test: Example V: postemergence herbicidal activity of mixtures in forage crops, SIDSP; type: in vivo, Sida spinosa (prickly sida); conditions: alone, 50 gae/ha, foliar, approximately 21 days
# Procedure: as §1, §2
smiles,measurement,setting,value
"O=C(O)c1nc(Cl)ccc1Cl [Clopyralid MEA salt, 3,6-dichloro-2-pyridinecarboxylic acid with 2-aminoethanol, reference compound]",CIRAR Obs (observed value),CIRAR,75%
same,SOOSS Obs (observed value),SOOSS,25%
"O=C(O)c1c(Cl)ccc2cc(Cl)cnc12 [Quinclorac, 3,7-dichloro-8-quinolinecarboxylic acid]",Visual Weed Control (%) Obs,"SCPMA; 20 DAA, 560 gai/ha",0%
same,Visual Weed Control (%) - 21 DAA ISCRU Obs,ISCRU; 140 gai/ha,0%
same,Visual Weed Control (%) - 21 DAA ISCRU Obs,ISCRU; 280 gai/ha,0%
same,Visual Weed Control (%) - 21 DAA ISCRU Obs,ISCRU; 560 gai/ha,0%
same,Visual Weed Control (%) - 21 DAA ECHCG Obs,ECHCG [1]; 70 gai/ha,15%
same,Visual Weed Control (%) - 21 DAA ECHCG Obs,ECHCG [1]; 140 gai/ha,30%
same,Visual Weed Control (%) - 21 DAA ECHCG Obs,ECHCG [1]; 280 gai/ha,30%
same,AMARE Ob (observed value),AMARE,27%
same,pest or weed control at 560 g/ha,"ECHOR; 480 h, 20 DAA, 560 gai/ha, read-out: Visual Weed Control (%) Obs",20%
same,VIOTR Ob (observed value),VIOTR,0%
same,Visual Weed Control (%) - 21 DAA CYPES Obs,CYPES; 70 gai/ha,0%
same,Visual Weed Control (%) - 21 DAA CYPES Obs,CYPES; 140 gai/ha,0%
same,Visual Weed Control (%) - 21 DAA CYPES Obs,CYPES; 280 gai/ha,0%
same,Visual Weed Control (%) - 20 DAA DIGSA Obs,DIGSA,8%
same,Visual Weed Control (%) - 21 DAA DIGSA Obs,DIGSA,8%
same,Visual Weed Control (%) - 21 DAA CYPIR Obs,CYPIR [2]; 70 gai/ha,0%
same,Visual Weed Control (%) - 21 DAA CYPIR Obs,CYPIR [2]; 140 gai/ha,0%
same,Visual Weed Control (%) - 21 DAA CYPIR Obs,CYPIR [2]; 280 gai/ha,0%
same,POLCO Ob (observed value),POLCO,3%
same,Visual Weed Control (%) Obs,CYPIR [3],0%
"COc1c(Cl)ccc(Cl)c1C(=O)O [Dicamba DMA Salt, 3,6-dichloro-2-methoxybenzoic acid compound with N-methylmethanamine, reference compound]",Visual Weed Control (%) Obs,"SCPMA; 21 DAA, 140 gae/ha",0%
same,Visual Weed Control (%) Obs,"SCPMA; 21 DAA, 140 gai/ha",0%
same,Visual Weed Control (%) Obs,"SCPMA; 21 DAA, 280 gae/ha",0%
same,Visual Weed Control (%) - 20 DAA ECHCO Obs,ECHCO; 70 gae/ha,0%
same,Visual Weed Control (%) - 20 DAA ECHCO Obs,ECHCO; 140 gae/ha,0%
same,Visual Weed Control (%) - 20 DAA ECHCO Obs,ECHCO; 280 gae/ha,0%
same,pest or weed control at 140 g/ha,ECHOR; 140 gae/ha,10%
same,pest or weed control at 140 g/ha,ECHOR; 140 gai/ha,10%
same,pest or weed control at 280 g/ha,ECHOR; 280 gae/ha,15%
same,pest or weed control at 280 g/ha,ECHOR; 280 gai/ha,15%
same,CASOB Obs (observed value),CASOB,20%
same,Visual Weed Control (%) Obs,ECHCG [4]; 140 gae/ha,0%
same,Visual Weed Control (%) Obs,ECHCG [4]; 280 gae/ha,10%
same,Visual Weed Control (%) - 20 DAA CYPIR Obs,CYPIR [2]; 70 gae/ha,0%
same,Visual Weed Control (%) - 20 DAA CYPIR Obs,CYPIR [2]; 140 gae/ha,0%
same,Visual Weed Control (%) - 20 DAA CYPIR Obs,CYPIR [2]; 280 gae/ha,35%
same,Visual Weed Control (%) - 20 DAA LEFCH Obs,LEFCH; 140 gae/ha,0%
same,Visual Weed Control (%) - 20 DAA LEFCH Obs,LEFCH; 280 gae/ha,0%
same,SINAR Obs (observed value),SINAR,65%
same,SIDSP Obs (observed value),SIDSP,25%
